Data set [1] can be described thus: Cytotoxicity evaluation, MTT. The settings on record: human. In kind it is cell-based, human. Put shortly:
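HepG2 hepatocarcinoma cells exposed to compound in duplicate, then viability measured by MTT reduction (0.5 mg/ml), formazan dissolved in DMSO and read at 570 nm against 630 nm. Viability expressed as percent of untreated cells; CC50 taken from dose-response curve, doxorubicin as positive control.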

Data set [2] concerns T. brucei brucei AnTat 1.9. Nature of the data set: In vitro antitrypanosomal activity, Alamar Blue assay. The class given is cell-based. As to conditions: for Selectivity index HepG2/Tryp.: SI = CC50 HepG2 / IC50 Trypanosoma brucei brucei; for IC50: Trypanosoma brucei, slender bloodstream trypomastigotes, AnTat 1.9 strain, read-out: Trypanosoma brucei brucei IC50 values, Trypanos Antat 1.9. The procedure, abridged:
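Viability read-out: resazurin (Alamar Blue) fluorescence, 530 nm excitation/590 nm emission, after 5 h dye exposure following 69 h compound incubation at 37 °C, 5% CO2, 2000 parasites per well, doses in duplicate. IC50 values fitted nonlinearly, three independent runs.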
In general terms: Alamar Blue is a resazurin reagent that responds to reducing activity.

For data set [3], the system named is P. falciparum CQ-sensitive strain 3D7. Nature of the data set: In vitro antiplasmodial activity, SYBR Green I fluorescence-based method, strain 3D7. In kind it is cell-based. The settings on record: for IC50: Plasmodium falciparum, chloroquine-sensitive strain 3D7, 48 h incubation, read-out: P. falciparum strains IC50 values, 3D7; for Selectivity index HepG2/3D7: SI = CC50 HepG2 / IC50 P. falciparum 3D7. The procedure, abridged:
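P. falciparum 3D7 and W2 cultured in human erythrocytes in RPMI with 0.5% Albumax I at 37 °C, exposed 48 h to compounds tested […]. Parasite DNA read by SYBR Green I fluorescence (ex 485/em 535 nm); IC50 by non-linear regression, mean of three independent experiments.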

For data set [4], the system named is P. falciparum CQ-resistant strain W2. Description: In vitro antiplasmodial activity, SYBR Green I fluorescence-based method, strain W2. The settings on record: for IC50: Plasmodium falciparum, chloroquine-resistant strain W2, 48 h incubation, read-out: P. falciparum strains IC50 values, W2; for Selectivity index HepG2/W2: SI = CC50 HepG2 / IC50 P. falciparum W2. In kind it is cell-based. On the procedure: The in vitro antiplasmodial activities were tested over concentrations ranging from […] against culture-adapted P. falciparum reference strains 3D7 and W2. […] The parasites were cultivated in RPMI medium (Sigma-Aldrich, Lyon, France) supplemented with 0.5% Albumax I (Life Technologies Corporation, Paisley, UK), hypoxanthine (Sigma-Aldrich), and gentamicin (Sigma-Aldrich) with human erythrocytes and were incubated at 37 °C in a candle jar, as described previously[43] .The P. falciparum drug susceptibility test was carried out in 96-well flat-bottom sterile plates in a final volume of 250 µl. After 48 h incubation period with the drugs, quantities of DNA in treated and control cultures of parasites in human erythrocytes were quantified using the SYBR Green I (Sigma-Aldrich) fluorescence-based method[44]^,[45]. Briefly, after incubation, plates were frozen at −20 °C until use. Plates were then thawed for 2 h at room temperature, and 100 µl of each homogenised culture was transferred to a well of a 96-well flat-bottom sterile black plate (Nunc, Inc., Rochester, NY) that contained 100 µl of the SYBR Green I lysis buffer (2xSYBR Green, 20 mM Tris base pH 7.5, 5 mM EDTA, 0.008% w/v saponin, 0.08% w/v Triton X-100). […] Plates were incubated for 1 h at room temperature and then read on a fluorescence plate reader (Tecan, Grödig, Austria) using excitation and emission wavelengths of 485 and 535 nm, respectively. IC50 values were calculated by non-linear regression analysis of data from dose-response curves, using TableCurve 2D version 5.0 software (Systat Software, San Jose, CA). IC50 values are reported as means calculated from three independent experiments.

Data set [5] has as its system L. donovani (MHOM/IN/00/DEVI) promastigotes. Description: In vitro antileishmanial activity, MTT assay on promastigotes. In kind it is cell-based. The settings on record: Leishmania donovani, 72 h incubation, ≥10 = no activity noted at the highest concentration tested. The procedure, abridged:
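Log-phase L. donovani MHOM/IN/00/DEVI promastigotes (10^6/ml, Schneider's + 20% FCS) were exposed to graded compound concentrations (DMSO <0.5% v/v) for 72 h at 27 °C, in duplicate. Growth measured by MTT reduction (4 h, A570 nm); IC50 obtained by regression.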
Background: Tetrazolium dyes change colour on reduction, which living cells bring about.

Counter-ions that a name gives are not always drawn. Bounds are passed on as bounds.

A word on the melting point: it is the temperature, or range, at which the solid turns liquid. In turn, `c1cc(CNCCCN2CCOCC2)cc(-c2nc(-c3cccc(CNCCCN4CCOCC4)c3)c3ccccc3n2)c1` (as salt: (cooh)2) [Compound 3u, 2,4-Bis{3-[(3-morpholinopropyl)aminomethyl]phenyl}quinazoline] came in with a melting point of 186 to 188 °C.

For the compound `c1ccc2c(-c3ccc(CNCCN4CCOCC4)cc3)cc(-c3ccc(CNCCN4CCOCC4)cc3)nc2c1` (as salt: (cooh)2) [Compound 1h, 2,4-Bis{4-[(2-morpholinoethyl)aminomethyl]phenyl}quinoline], the melting point was 235 to 237 °C.

The compound `COc1ccc2c(-c3ccc(CNCCCCN4CCN(C)CC4)cc3)nc(-c3ccc(CNCCCCN4CCN(C)CC4)cc3)nc2c1` (as salt: (cooh)2) [Compound 3p, 7-Methoxy-2,4-bis{4-[(4–(4-methylpiperazin-1-yl)butyl)aminomethyl]phenyl}quinazoline] showed a melting point of 222 to 224 °C.

Compound `CN(C)CCCNCc1ccc(-c2cc(-c3ccc(CNCCCN(C)C)cc3)c3ccccc3n2)cc1` (as salt: (cooh)2) [Compound 1b, 2,4-Bis{4-[(3-dimethylaminopropyl)aminomethyl]phenyl}quinoline] gave a melting point of 244 to 246 °C.

Take `c1ccc2c(-c3ccc(CNCCN4CCOCC4)cc3)nc(-c3ccc(CNCCN4CCOCC4)cc3)nc2c1` (as salt: (cooh)2) [Compound 3g, 2,4-Bis{4-[(2-morpholinoethyl)aminomethyl]phenyl}quinazoline]: the melting point lay within 195 to 197 °C.

For the compound `c1cc(CNCCN2CCOCC2)cc(-c2cc(-c3cccc(CNCCN4CCOCC4)c3)c3ccccc3n2)c1` (as salt: (cooh)2) [Compound 1t, 2,4-Bis{3-[(2-morpholinoethyl)aminomethyl]phenyl}quinoline], the melting point lay within 225 to 227 °C.

In the case of `COc1ccc2c(-c3ccc(CNCCN4CCN(C)CC4)cc3)nc(-c3ccc(CNCCN4CCN(C)CC4)cc3)nc2c1` (as salt: (cooh)2) [Compound 3r, 7-Methoxy-2,4-bis{4-[(2–(4-methylpiperazin-1-yl)ethyl)aminomethyl]phenyl}quinazoline], the melting point is 238 to 240 °C.

In turn, `c1ccc2c(-c3ccc(CNCCCN4CCOCC4)cc3)cc(-c3ccc(CNCCCN4CCOCC4)cc3)nc2c1` (as salt: (cooh)2) [Compound 1g, 2,4-Bis{4-[(3-morpholinopropyl)aminomethyl]phenyl}quinoline] displayed a melting point of 202 to 204 °C.

Turning to `COc1ccc2c(-c3ccc(CNCCCN4CCN(C)CC4)cc3)cc(-c3ccc(CNCCCN4CCN(C)CC4)cc3)nc2c1` (as salt: (cooh)2) [Compound 1p, 7-Methoxy-2,4-bis{4-[(3–(4-methylpiperazin-1-yl)propyl)aminomethyl]phenyl}quinoline], the melting point is 245 to 247 °C.

In turn, `COc1ccc2nc(-c3ccc(CNCCCN(C)C)cc3)cc(-c3ccc(CNCCCN(C)C)cc3)c2c1` (as salt: (cooh)2) [Compound 1j, 6-Methoxy-2,4-bis{4-[(3-dimethylaminopropyl)aminomethyl]phenyl}quinoline] gave a melting point of 224 to 226 °C.

As to `COc1ccc2nc(-c3ccc(CNCCN(C)C)cc3)nc(-c3ccc(CNCCN(C)C)cc3)c2c1` (as salt: (cooh)2) [Compound 3j, 6-Methoxy-2,4-bis{4-[(2-dimethylaminoethyl)aminomethyl]phenyl}quinazoline], the melting point was 233 to 235 °C.

Take `COc1ccc2c(-c3ccc(CNCCCCN4CCN(C)CC4)cc3)cc(-c3ccc(CNCCCCN4CCN(C)CC4)cc3)nc2c1` (as salt: (cooh)2) [Compound 1o, 7-Methoxy-2,4-bis{4-[(4–(4-methylpiperazin-1-yl)butyl)aminomethyl]phenyl}quinoline]: the melting point lay in the range of 237 to 239 °C.

A word on the CC50: it is the concentration that lowers cell viability or growth by half. Higher therefore signals lower toxicity to the cells. By IC50 is commonly meant the point on the concentration scale where inhibition reaches its midpoint. In data set [1], `COc1ccc2nc(-c3ccc(CNCCCCN(C)C)cc3)cc(-c3ccc(CNCCCCN(C)C)cc3)c2c1` [Compound 1i, 6-Methoxy-2,4-bis{4-[(4-dimethylaminobutyl)aminomethyl]phenyl}quinoline] registered a cytotoxic concentration (CC50) at 72 h of 3.58 ± 0.3 µM. In data set [2], the “Selectivity index HepG2/Tryp.” value is recorded as 5.34 and the IC50 is 0.67 ± 0.091 µM. In addition, in data set [3], the IC50 was determined as 3.09 ± 0.38 µM and the “Selectivity index HepG2/3D7” value came out at 1.16. In data set [4], the half-inhibitory concentration (IC50) came to 7.92 ± 0.64 µM and the “Selectivity index HepG2/W2” value stood at 0.45. Also, the half-maximal inhibitory concentration (IC50) in data set [5] was not below 10 µM.

For the compound `COc1ccc2c(-c3ccc(CNCCCN(C)C)cc3)cc(-c3ccc(CNCCCN(C)C)cc3)nc2c1` [Compound 1n, 7-Methoxy-2,4-bis{4-[(3-dimethylaminopropyl)aminomethyl]phenyl}quinoline], the CC50 at 72 h in data set [1] turned out to be 0.48 ± 0.1 µM. Also, in data set [2], the “Selectivity index HepG2/Tryp.” value turned out to be 0.40 and the 50% inhibitory concentration (IC50) was found to be 1.2 ± 0.296 µM. In data set [3], the IC50 was 3.18 ± 0.36 µM and the “Selectivity index HepG2/3D7” value is reported as 0.15. For the same compound, in data set [4], the concentration for half-maximal inhibition (IC50) was found to be 1.69 ± 0.24 µM and the “Selectivity index HepG2/W2” value stood at 0.28. Moreover, in data set [5], the IC50 was not below 10 µM.

For `CN(C)CCCCNCc1ccc(-c2cc3ccccc3c(-c3ccc(CNCCCCN(C)C)cc3)n2)cc1` [Compound 2a, 1,3-Bis{4-[(4-dimethylaminobutyl)aminomethyl]phenyl}isoquinoline], the cytotoxic concentration (CC50) at 72 h in data set [1] worked out at 8.31 ± 1 µM. Moreover, the “Selectivity index HepG2/Tryp.” value in data set [2] is recorded as 12.98. For the same compound, the IC50 in data set [2] was 0.64 ± 0.163 µM; in data set [3], 1.74 ± 0.36 µM; in data set [4] it was 6.23 ± 0.8 µM; in data set [5] it was not below 10 µM. The “Selectivity index HepG2/3D7” value in data set [3] was 4.78. Moreover, the “Selectivity index HepG2/W2” value in data set [4] came out at 1.33.

The compound `COc1ccc2c(-c3ccc(CNCCN4CCN(C)CC4)cc3)nc(-c3ccc(CNCCN4CCN(C)CC4)cc3)nc2c1` [Compound 3r, 7-Methoxy-2,4-bis{4-[(2–(4-methylpiperazin-1-yl)ethyl)aminomethyl]phenyl}quinazoline] came in with a CC50 at 72 h in data set [1] of 3.9 ± 0.9 µM. Also, in data set [2], the “Selectivity index HepG2/Tryp.” value is listed as 3.64 and the IC50 came out at 1.07 ± 0.164 µM. Besides, in data set [3], the IC50 was 4.34 ± 0.33 µM and the “Selectivity index HepG2/3D7” value stood at 0.90. Further, in data set [4], the IC50 was 4.75 ± 0.31 µM and the “Selectivity index HepG2/W2” value came to 0.82. This compound showed a 50% inhibitory concentration (IC50) in data set [5] not below 10 µM.

With `COc1ccc2cc(-c3ccc(CNCCCN4CCN(C)CC4)cc3)nc(-c3ccc(CNCCCN4CCN(C)CC4)cc3)c2c1` [Compound 2h, 7-Methoxy-1,3-bis{4-[(3–(4-methylpiperazin-1-yl)propyl)aminomethyl]phenyl}isoquinoline], in data set [1], half-maximal cytotoxicity (CC50 at 72 h) was put at 7.18 ± 0.6 µM. Also, in data set [2], the “Selectivity index HepG2/Tryp.” value stood at 8.86 and the IC50 is 0.81 ± 0.255 µM. In data set [3], the 50% inhibitory concentration (IC50) was 1.81 ± 0.19 µM and the “Selectivity index HepG2/3D7” value is 3.97. Besides, in data set [4], the 50% inhibitory concentration (IC50) was 1.28 ± 0.34 µM and the “Selectivity index HepG2/W2” value was determined as 5.61. Moreover, in data set [5], the IC50 is not below 10 µM.

As to `COc1ccc2c(-c3ccc(CNCCCCN(C)C)cc3)cc(-c3ccc(CNCCCCN(C)C)cc3)nc2c1` [Compound 1m, 7-Methoxy-2,4-bis{4-[(4-dimethylaminobutyl)aminomethyl]phenyl}quinoline], in data set [1], it took 5.4 ± 0.3 µM to reach half-maximal cytotoxicity (CC50 at 72 h). Besides, the “Selectivity index HepG2/Tryp.” value in data set [2] was 5.00. For the same compound, the concentration for half-maximal inhibition (IC50) was 1.08 ± 0.068 µM in data set [2], 8.98 ± 0.36 µM in data set [3], more than 40 µM in data set [4] and not below 10 µM in data set [5]. In addition, in data set [3], the “Selectivity index HepG2/3D7” value is 0.60.

These data come from article PMC6968685 (Journal of Enzyme Inhibition and Medicinal Chemistry, 2020).
